Test results reported in ChEMBL document CHEMBL4382283, “Discovery of a GPR40 Superagonist: The Impact of Aryl Propionic Acid α-Fluorination” (ACS Med Chem Lett, 2019).
Active and inactive are the calls of the source. The calls are words filed in the database; no cut-off is given here.

Assays:
[1] = target: T1, Free fatty acid receptor 1 (Homo sapiens, UniProt O14842); assay: Full agonist activity at human GPR40 expressed in CHOK1 cells assessed as induction of GalphaS-mediated cAMP accumulation after 30 mins HTRF assay; format: functional, cell-based
T1 sequence (O14842 whole entry): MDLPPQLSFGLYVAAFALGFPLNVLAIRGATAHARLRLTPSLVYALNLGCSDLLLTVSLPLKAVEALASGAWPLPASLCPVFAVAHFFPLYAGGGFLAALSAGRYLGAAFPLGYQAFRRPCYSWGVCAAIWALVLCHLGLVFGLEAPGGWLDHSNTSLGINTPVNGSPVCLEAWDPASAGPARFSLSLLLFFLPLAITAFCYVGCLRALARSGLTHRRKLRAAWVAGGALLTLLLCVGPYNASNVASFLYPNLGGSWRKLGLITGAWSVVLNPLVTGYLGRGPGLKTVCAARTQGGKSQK

[2] = target: T1, Free fatty acid receptor 1; assay: Agonist activity at human GPR40 expressed in HEK293 cells assessed as induction of intracellular calcium mobilization by Fluo-8 dye based FLIPR assay; format: functional, cell-based
[3] = target: Free fatty acid receptor 1 (Rattus norvegicus, UniProt Q8K3T4); assay: Agonist activity at rat GPR40 expressed in HEK293 cells assessed as induction of intracellular calcium mobilization by Fluo-8 dye based FLIPR assay; format: functional, cell-based
Free fatty acid receptor 1 (Rattus norvegicus, UniProt Q8K3T4), sequence (Q8K3T4 whole entry): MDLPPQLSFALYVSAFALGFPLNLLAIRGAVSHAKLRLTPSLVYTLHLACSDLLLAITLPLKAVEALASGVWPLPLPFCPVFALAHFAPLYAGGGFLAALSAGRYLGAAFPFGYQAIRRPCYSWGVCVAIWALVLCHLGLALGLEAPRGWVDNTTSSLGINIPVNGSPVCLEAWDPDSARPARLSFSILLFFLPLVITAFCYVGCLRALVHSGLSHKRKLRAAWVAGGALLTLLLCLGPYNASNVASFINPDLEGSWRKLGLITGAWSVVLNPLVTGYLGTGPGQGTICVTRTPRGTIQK

[4] = target: T1, Free fatty acid receptor 1; assay: Agonist activity at human GPR40 expressed in CHOK1 cells assessed as induction of Galphaq-mediated IP1 accumulation after 90 mins HTRF assay; format: functional, cell-based
[5] = Half life in Sprague-Dawley rat at 10 mg/kg, po by LC-MS/MS analysis; format: ADME, organism-based; details: in vivo
[6] = Plasma concentration in diet-induced obese mouse at 0.03 mg/kg, po; format: ADME, organism-based; details: in vivo
[7] = Plasma concentration in diet-induced obese mouse at 1 mg/kg, po; format: ADME, organism-based; details: in vivo
[8] = tested on: Mus musculus; assay: Antiobesity activity in diet-induced obese C57BL/6J mouse assessed as reduction in cumulative food intake administered orally once daily for 14 days; format: functional, organism-based
[9] = Plasma concentration in diet-induced obese mouse at 10 mg/kg, po; format: ADME, organism-based; details: in vivo
[10] = target: T1, Free fatty acid receptor 1; assay: Positive allosteric modulation of human GPR40 expressed in CHOK1 cells assessed as increase in [3H]-(S)-3-Cyclopropyl-3-(3-(((1r,4S)-4-(2-fluoro-5-methoxyphenyl)cyclohexyl)methoxy)phenyl)propanoic acid binding after 60 mins by TopCount method; format: cell-based
[11] = target: Voltage-gated inwardly rectifying potassium channel KCNH2 (Homo sapiens, UniProt Q12809); assay: Inhibition of human ERG
Voltage-gated inwardly rectifying potassium channel KCNH2, sequence (Q12809 whole entry): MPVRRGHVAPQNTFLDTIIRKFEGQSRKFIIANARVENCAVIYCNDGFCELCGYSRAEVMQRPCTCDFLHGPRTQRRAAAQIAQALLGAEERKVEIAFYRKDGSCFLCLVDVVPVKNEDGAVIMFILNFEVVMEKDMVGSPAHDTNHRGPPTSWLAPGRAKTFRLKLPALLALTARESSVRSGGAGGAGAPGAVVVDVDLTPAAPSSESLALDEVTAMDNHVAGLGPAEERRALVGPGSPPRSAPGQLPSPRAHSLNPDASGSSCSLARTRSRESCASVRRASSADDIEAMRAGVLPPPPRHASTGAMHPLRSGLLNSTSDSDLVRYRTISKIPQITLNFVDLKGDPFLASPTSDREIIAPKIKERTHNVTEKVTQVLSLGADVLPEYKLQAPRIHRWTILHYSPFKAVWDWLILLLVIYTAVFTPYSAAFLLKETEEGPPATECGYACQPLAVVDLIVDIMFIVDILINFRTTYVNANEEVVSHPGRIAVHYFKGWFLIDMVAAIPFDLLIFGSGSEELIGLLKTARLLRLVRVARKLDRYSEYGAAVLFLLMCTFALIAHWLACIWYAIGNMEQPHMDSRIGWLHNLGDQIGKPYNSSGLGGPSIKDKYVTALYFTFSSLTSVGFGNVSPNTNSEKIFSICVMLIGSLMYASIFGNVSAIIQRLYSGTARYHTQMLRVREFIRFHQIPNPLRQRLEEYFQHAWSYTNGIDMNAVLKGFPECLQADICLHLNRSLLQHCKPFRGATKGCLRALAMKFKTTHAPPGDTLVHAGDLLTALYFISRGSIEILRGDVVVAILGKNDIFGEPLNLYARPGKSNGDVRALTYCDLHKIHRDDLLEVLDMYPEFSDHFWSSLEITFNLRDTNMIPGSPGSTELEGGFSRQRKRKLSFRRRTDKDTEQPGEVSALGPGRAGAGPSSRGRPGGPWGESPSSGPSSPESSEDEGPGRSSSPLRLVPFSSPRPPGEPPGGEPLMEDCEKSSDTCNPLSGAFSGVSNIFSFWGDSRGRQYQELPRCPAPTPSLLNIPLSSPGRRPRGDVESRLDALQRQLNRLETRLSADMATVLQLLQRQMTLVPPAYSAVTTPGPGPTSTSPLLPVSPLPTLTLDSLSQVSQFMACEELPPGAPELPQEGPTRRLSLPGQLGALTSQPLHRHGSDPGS

[12] = target: T1, Free fatty acid receptor 1; assay: Agonist activity at GPR40 in human islets assessed as induction of glucose-stimulated insulin secretion after 1 hr by HTRF assay
[13] = tested on: Mus musculus; assay: Antiobesity activity in diet-induced obese C57BL/6J mouse assessed as body weight loss at 10 mg/kg, po once daily for 14 days measured on day 15 (reference value: 3.74 +/- 0.6%); format: functional
[14] = tested on: Mus musculus; assay: Antiobesity activity in diet-induced obese C57BL/6J mouse assessed as body weight loss at 3 mg/kg, po once daily for 14 days measured on day 15 (reference value: 3.74 +/- 0.6%); format: functional
[15] = Cmax in Sprague-Dawley rat at 10 mg/kg, po by LC-MS/MS analysis; format: ADME, organism-based; set-up: dose 10 mg/kg, route oral; details: in vivo
[16] = Oral bioavailability in Sprague-Dawley rat at 10 mg/kg by LC-MS/MS analysis; format: ADME, organism-based; details: in vivo
[17] = Drug metabolism in human hepatocytes at 10 uM after 2 hr by LC-MS analysis; format: ADME, cell-based, Hepatocyte
[18] = Volume of distribution at steady state in Sprague-Dawley rat at 10 mg/kg, po or 2 mg/kg, iv by LC-MS/MS analysis; format: ADME, organism-based; details: in vivo, read-out: Vdss
[19] = Plasma concentration in diet-induced obese C57BL/6J mouse at 30 mg/kg, po once daily for 14 days measured 24 hrs post last dose; format: ADME, organism-based
[20] = Plasma concentration in diet-induced obese mouse at 3 mg/kg, po; format: ADME, organism-based; details: in vivo
[21] = Half life in Sprague-Dawley rat at 2 mg/kg, iv by LC-MS/MS analysis; format: ADME, organism-based; details: in vivo
[22] = tested on: Cytochrome P450; assay: Inhibition of CYP450 in human liver microsomes at 10 uM after 0.5 hrs by LC-MS/MS analysis; format: ADME
[23] = Metabolic stability in human hepatocytes assessed as parent compound remaining at 10 uM after 2 hr by LC-MS analysis; format: ADME, cell-based, Hepatocyte
[24] = tested on: Mus musculus; assay: Antidiabetic activity in diet-induced obese mouse assessed as reduction in blood glucose excursion administered orally 45 mins prior to glucose challenge and measured up to 120 mins by OGTT; format: functional
[25] = tested on: Mus musculus; assay: Antiobesity activity in diet-induced obese C57BL/6J mouse assessed as body weight loss administered orally once daily for 14 days; format: functional, organism-based
[26] = tested on: Mus musculus; assay: Antiobesity activity in diet-induced obese C57BL/6J mouse assessed as body weight loss at 30 mg/kg, po once daily for 14 days measured on day 15 (reference value: 3.74 +/- 0.6%); format: functional
[27] = target: T1, Free fatty acid receptor 1
Description: Displacement of [3H]AM-1638 from human GPR40 expressed in CHOK1 cells assessed as association half life after 60 mins by TopCount method

[28] = Plasma concentration in diet-induced obese C57BL/6J mouse at 10 mg/kg, po once daily for 14 days measured 24 hrs post last dose; format: ADME, organism-based
[29] = tested on: Mus musculus; assay: Antiobesity activity in diet-induced obese C57BL/6J mouse assessed as body weight loss at 1 mg/kg, po once daily for 14 days measured on day 15 (reference value: 3.74 +/- 0.6%); format: functional
[30] = Clearance in Sprague-Dawley rat at 10 mg/kg, po or 2 mg/kg, iv by LC-MS/MS analysis; format: ADME, organism-based; details: in vivo
[31] = Plasma concentration in diet-induced obese C57BL/6J mouse at 0.3 mg/kg, po once daily for 14 days measured 24 hrs post last dose; format: ADME, organism-based
[32] = tested on: Cytochrome P450; assay: Induction of CYP450 in human liver microsomes at 10 uM after 0.5 hrs by LC-MS/MS analysis; format: ADME
[33] = Protein binding in human plasma at 10 uM after 6 hrs by equilibrium dialysis method; format: ADME, cell-free; details: read-out: PPB
[34] = target: T1, Free fatty acid receptor 1; remark: listed apart in the source
Description: Displacement of [3H]AM-1638 from human GPR40 expressed in CHOK1 cells assessed as dissociation half life after 40 mins by TopCount method

[35] = tested on: Mus musculus; assay: Antiobesity activity in diet-induced obese C57BL/6J mouse assessed as body weight loss at 0.3 mg/kg, po once daily for 14 days measured on day 15 (reference value: 3.74 +/- 0.6%); format: functional
[36] = Plasma concentration in diet-induced obese mouse at 0.1 mg/kg, po; format: ADME, organism-based; details: in vivo
[37] = Plasma concentration in diet-induced obese C57BL/6J mouse at 3 mg/kg, po once daily for 14 days measured 24 hrs post last dose; format: ADME, organism-based
[38] = Plasma concentration in diet-induced obese C57BL/6J mouse at 1 mg/kg, po once daily for 14 days measured 24 hrs post last dose; format: ADME, organism-based
[39] = Genotoxicity in Salmonella typhi by Ames test; format: toxicity; details: salmonella enterica subsp. enterica serovar […]
[40] = Plasma concentration in diet-induced obese mouse at 0.3 mg/kg, po; format: ADME, organism-based; details: in vivo
[41] = target: T1, Free fatty acid receptor 1; assay: Agonist activity at GPR40 in human islets assessed as induction of glucose-stimulated insulin secretion at 10 uM after 1 hr by HTRF assay relative to (S)-3-Cyclopropyl-3-(3-(((1r,4S)-4-(2-fluoro-5-methoxyphenyl)cyclohexyl)methoxy)phenyl)propanoic acid
[42] = tested on: Rattus norvegicus; assay: Antiobesity activity in ZDF rat assessed as reduction in food intake at 10 mg/kg daily for 38 days relative to control; format: functional; set-up: scale not given: the % may be the effect or the level left
[43] = tested on: Rattus norvegicus; assay: In vivo agonist activity at GPR40 in ZDF rat assessed as increase in plasma total GLP1 level at 10 mg/kg daily for 38 days relative to control; format: functional
[44] = tested on: Mus musculus; assay: Antidiabetic activity in diet-induced obese mouse assessed as reduction in blood glucose excursion at 10 mg/kg, po administered 45 mins prior to glucose challenge and measured up to 120 mins by OGTT; format: functional, organism-based
[45] = tested on: Rattus norvegicus; assay: Antiobesity activity in ZDF rat assessed as body weight loss at 10 mg/kg daily for 38 days relative to control; format: functional
[46] = target: T1, Free fatty acid receptor 1; assay: Partial agonist activity at human GPR40 expressed in CHOK1 cells assessed as induction of GalphaS-mediated cAMP accumulation after 30 mins HTRF assay; format: functional, cell-based

## COc1ccc(F)c([C@H]2CC[C@H](COc3cccc([C@H](C4CC4)[C@H](F)C(=O)O)c3)CC2)c1
[1]
  Activity: Active
[2]
  EC50: 54 nM
[3]
  EC50: 163 nM

## COc1ccc(F)c(-c2ccc(COc3cccc([C@@H](CC(=O)O)C4CC4)c3)cc2C2=CCCC2(C)C)c1
[1]
  Activity: Active
[4]
  Activity: Active

## COc1ccc(F)c([C@H]2CC[C@H](COc3cccc([C@H](C4CC4)[C@@](C)(F)C(=O)O)c3)CC2)c1
[5]
  half-life: 7.9 h
[6]
  concentration: 7.4 nM
[1]
  Activity: Active
[2]
  EC50: 0.25 nM
[7]
  concentration: 220 nM
[8]
  Activity: Dose-dependent effect
[9]
  concentration: 3830 nM
[10]
  Activity: Active
[11]
  inhibition (INH): Not Active
[3]
  EC50: 0.34 nM
[12]
  EC50: 3.7 nM
[13]
  Activity: -10.07%
[14]
  Activity: -2.56%
[15]
  Cmax: 495 ng/mL
[16]
  bioavailability: 92.1%
[17]
  Drug metabolism: 1%
[18]
  Vd: 3.2 L/kg
[19]
  concentration at 24 h: 391000 nM
[4]
  EC50: 3.1 to 5.3 nM
[20]
  concentration: 870 nM
[21]
  half-life: 4.3 h
[22]
  inhibition (INH): Not Active
[23]
  Stability: 73%
[24]
  Activity: Dose-dependent effect
[24]; po, read-out: MED
  minimal effective dose: 3 mg/kg
[25]
  Activity: Dose-dependent effect
[26]
  Activity: -6.84%
[27]
  T1/2: 3.3 min
[28]
  concentration at 24 h: 7050 nM
[29]
  Activity: 1.05%
[30]
  clearance: 17 mL/min/kg
[31]
  concentration at 24 h: 100 nM
[32]
  Activity: Not Active
[33]
  fraction unbound at 6 h, 10 µM: < 0.001
[34]
  T1/2: 0.333 h
[35]
  Activity: 3.15%
[36]
  concentration: 22 nM
[37]
  concentration at 24 h: 1290 nM
[38]
  concentration at 24 h: 340 nM
[39]
  Activity: Non-Toxic
[40]
  concentration: 87 nM

## COc1ccc(F)c([C@H]2CC[C@H](COc3cccc([C@H](C4CC4)[C@H](C)C(=O)O)c3)CC2)c1
[5]
  half-life: 4.4 h
[15]
  Cmax: 1360 ng/mL
[16]
  bioavailability: 45.5%
[17]
  Drug metabolism: 5%
[18]
  Vd: 0.9 L/kg
[4]
  EC50: 2 nM
[21]
  half-life: 4.8 h
[23]
  Stability: 45%
[30]
  clearance: 8.1 mL/min/kg

## COc1ccc(F)c([C@H]2CC[C@H](COc3cccc([C@H](C4CC4)[C@@H](F)C(=O)O)c3)CC2)c1
[5]
  half-life: 4.3 h
[1]
  Activity: Active
[2]
  EC50: 1.1 nM
[3]
  EC50: 28 nM
[15]
  Cmax: 3700 ng/mL
[16]
  bioavailability: 73.8%
[17]
  Drug metabolism: 7%
[18]
  Vd: 0.9 L/kg
[4]
  EC50: 20 nM
[21]
  half-life: 4.7 h
[23]
  Stability: 63%
[30]
  clearance: 2.7 mL/min/kg

## Cc1cc(OCCCS(C)(=O)=O)cc(C)c1-c1cccc(COc2ccc3c(c2)OC[C@H]3CC(=O)O)c1
[41]
  Efficacy: 40%
[3]
  EC50: 39 nM

## COc1ccc(F)c([C@H]2CC[C@H](COc3cccc([C@@H](CC(=O)O)C4CC4)c3)CC2)c1
[5]
  half-life: 9.1 h
[1]
  Activity: Active
[2]
  EC50: 0.94 nM
[9]
  concentration: 98700 nM
[10]
  Activity: Active
[42]
  Activity: 10%
[3]
  EC50: 4.1 nM
[12]
  EC50: 1370 nM
[15]
  Cmax: 18200 ng/mL
[16]
  bioavailability: 91.4%
[43]
  fold change (FC): 6.2
[17]
  Drug metabolism: 4%
[18]
  Vd: 0.2 L/kg
[4]
  EC50: 199 nM
[21]
  half-life: 7.2 h
[23]
  Stability: 56%
[44]
  Activity: Active
[27]
  T1/2: 0.8 min
[30]
  clearance: 0.4 mL/min/kg
[33]
  fraction unbound at 6 h, 10 µM: < 0.001
[34]
  T1/2: 0.00233 h
[45]
  Activity: 6%

## COc1ccc(F)c([C@H]2CC[C@H](COc3cccc([C@H](C4CC4)C(F)(F)C(=O)O)c3)CC2)c1
[2]
  EC50: 16 nM
[3]
  EC50: 34 nM

## COc1ccc(F)c([C@H]2CC[C@H](COc3cccc([C@H](C4CC4)[C@](C)(F)C(=O)O)c3)CC2)c1
[1]
  Activity: Active
[4]
  EC50: 89 nM

## COc1ccc(F)c([C@H]2CC[C@H](COc3cccc([C@H](C4CC4)C(C)(C)C(=O)O)c3)CC2)c1
[2]
  EC50: 0.11 nM
[3]
  EC50: 0.31 nM
[4]
  EC50: 220 nM

## COc1ccc(F)c([C@H]2CC[C@H](COc3cccc([C@H](C4CC4)[C@@H](C)C(=O)O)c3)CC2)c1
[2]
  EC50: 2.2 nM
[3]
  EC50: 4.9 nM
[4]
  EC50: 22 nM

## COc1ccc(F)c([C@H]2CC[C@@H](COc3cccc([C@@H](CC(=O)O)C4CC4)c3)CC2)c1
[46]
  Activity: Active
